The values below come from patent EP3521435A1, “A HIGH STRINGENCY SELECTION SYSTEM FOR PROTEIN EXPRESSION IN PROLINE-AUXOTROPHIC CELLS” (Bayer AG, priority 2018, dated 2019).

Assay [1] deals with T1, murine P5CS short isoform (Mus musculus, UniProt Q9Z110).
T1 sequence (Q9Z110 1-793 isoform Q9Z110-2): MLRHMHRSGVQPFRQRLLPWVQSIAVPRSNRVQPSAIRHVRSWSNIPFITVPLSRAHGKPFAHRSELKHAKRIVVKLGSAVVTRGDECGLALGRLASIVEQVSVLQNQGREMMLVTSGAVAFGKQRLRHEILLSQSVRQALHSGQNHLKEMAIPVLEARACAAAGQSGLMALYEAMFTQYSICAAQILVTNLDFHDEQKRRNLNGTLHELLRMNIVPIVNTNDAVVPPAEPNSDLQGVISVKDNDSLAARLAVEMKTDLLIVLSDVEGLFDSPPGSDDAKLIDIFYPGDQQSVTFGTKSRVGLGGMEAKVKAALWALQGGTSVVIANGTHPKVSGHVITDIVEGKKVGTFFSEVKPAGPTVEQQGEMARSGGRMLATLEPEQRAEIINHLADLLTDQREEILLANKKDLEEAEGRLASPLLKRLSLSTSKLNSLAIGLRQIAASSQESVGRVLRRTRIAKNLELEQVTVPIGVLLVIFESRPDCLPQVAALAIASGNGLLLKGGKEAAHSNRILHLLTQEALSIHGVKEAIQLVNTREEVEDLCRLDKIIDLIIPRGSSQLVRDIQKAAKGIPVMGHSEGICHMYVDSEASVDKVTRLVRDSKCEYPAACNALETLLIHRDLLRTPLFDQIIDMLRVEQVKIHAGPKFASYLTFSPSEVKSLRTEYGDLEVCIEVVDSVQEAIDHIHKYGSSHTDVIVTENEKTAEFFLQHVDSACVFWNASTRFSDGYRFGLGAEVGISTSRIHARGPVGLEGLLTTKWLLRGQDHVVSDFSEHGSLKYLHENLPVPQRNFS
The settings on record: Hu et al.; cited from earlier work.

Assay [2] has as its system CHO-K1 cells. Nature of the assay: Fed-batch fermentation in shake flasks of human IgG1 expressing stable cell populations. It is filed as cell-based, Chinese hamster. The settings on record: selected in CD-Fusion + 10 µg/ml Puromycin (pJF1576), non-selecting conditions; for Productivity profile: human IgG1. The text has this:
To test the performance of P5CS selection in combination with DHP in a production cell line development setting (i.e. only a single selection marker in expression vector), vectors with P5CS selection marker in place of Puromycin selection marker containing human IgG1 expression cassettes were generated and tested. For this experiment, the vector pJF1979 was taken as a reference, with Puromycin selection marker placed downstream of the human IgG1 expression cassette. For comparison, the vectors pJF1969 and pJF1970 were used, which contained short and long isoform of P5CS in place of Puromycin selection marker downstream of human IgG1 expression cassette. As control, vector pJF1576 from Example 8 was used, which contained both P5CS (upstream of human IgG1 expression cassette) and Puromycin (downstream of human IgG1 expression cassette) selection markers. […] The fed-batch was without pH control during cultivation and no additional glucose was fed apart from that present in feeding solutions. Table 22, Table 23 and Table 24 show viable cell density, viability and productivity profiles of cell populations cultured in fed-batch fermentation in shake flasks under non-selecting conditions (i.e. production medium containing proline and no additional selective agents like Puromycin or DHP) after inoculation at 3e5 viable cells/ml. […] Table 21: Cell viabilities determined post-transfection on day 21.

In assay [3] the test system is CHO-K1 cells. The description is as above. Type of assay: cell-based, Chinese hamster. The settings on record: non-selecting conditions; for Productivity profile: human IgG1.
[4] abbreviates: Day 3 after inoculation, selected in CD-Fusion + 10 µg/ml Puromycin (pJF1576).
Setting [5] is: Day 3 after inoculation, selected in CD-Fusion + 10 µg/ml Puromycin (pJF1579).
Setting [6] is: Day 5 after inoculation, selected in CD-Fusion + 10 µg/ml Puromycin (pJF1579).
Setting [7] is: Day 5 after inoculation, selected in CD-Fusion + 10 µg/ml Puromycin (pJF1576).
Setting [8] is: Day 7 after inoculation, selected in CD-Fusion + 10 µg/ml Puromycin (pJF1579).
Where [9] appears, read: Day 10 after inoculation, selected in CD-Fusion + 10 µg/ml Puromycin (pJF1576).
Where [10] appears, read: Day 10 after inoculation, selected in CD-Fusion + 10 µg/ml Puromycin (pJF1579).
Where [11] appears, read: Day 12 after inoculation, selected in CD-Fusion + 10 µg/ml Puromycin (pJF1579).
Setting [12] is: Day 14 after inoculation, selected in CD-Fusion + 10 µg/ml Puromycin (pJF1576).
Setting [13] is: Day 14 after inoculation, selected in CD-Fusion + 10 µg/ml Puromycin (pJF1579).

For `NCCC[C@H](N)C(=O)O` [Orn, L-Ornithine], the Ki (as a rule, the dissociation constant of the complex between target and ligand, obtained from inhibition or displacement) in assay [1] is roughly 250 µM.
For the compound `COc1ccc(C[C@H](N)C(=O)N[C@H]2[C@@H](O)[C@H](n3cnc4c(N(C)C)ncnc43)O[C@@H]2CO)cc1` [Puromycin], the Productivity profile in assay [2] (Day 5 after inoculation) was 26.6 mg/L; in assay [2] (Day 7 after inoculation), 68.9 mg/L; in assay [2] (Day 12 after inoculation), 304.9 mg/L; in assay [3] (setting [4]) it was 13.6 mg/L; in assay [3] (setting [5]) it was 12.4 mg/L; in assay [3] (setting [6]), 24.4 mg/L. For the same compound, the Productivity profile in assay [3] (setting [8]) is listed as 60.0 mg/L; in assay [3] (setting [9]) it was 182.0 mg/L; in assay [3] (setting [10]) it was 155.1 mg/L; in assay [3] (setting [11]) it was 265.9 mg/L; in assay [3] (setting [12]), 442.2 mg/L; in assay [3] (setting [13]), 372.0 mg/L. Further, the Viability profile in assay [2] (Day 7 after inoculation) is 99.3%; in assay [2] (Day 10 after inoculation), 97.0%; in assay [3] (Day 0 after inoculation, selected in CD-Fusion + 10 µg/ml Puromycin (pJF1576)), 99.8%; in assay [3] (Day 0 after inoculation, selected in CD-Fusion + 10 µg/ml Puromycin (pJF1579)) it was 99.8%; in assay [3] (setting [4]) it was 99.9%; in assay [3] (setting [5]) it was 99.8%. The Viability profile came to 99.8% in assay [3] (setting [7]); 99.9% in assay [3] (setting [6]); 99.2% in assay [3] (setting [8]); 97.9% in assay [3] (setting [10]); 96.2% in assay [3] (Day 12 after inoculation, selected in CD-Fusion + 10 µg/ml Puromycin (pJF1576)); 97.5% in assay [3] (setting [11]). For the same compound, the Viability profile is given as 86.2% in assay [3] (setting [12]) and 92.7% in assay [3] (setting [13]). Further, the “Viable cell density profile” value is recorded as 9,1E +06 VCD/ml in assay [2] (Day 12 after inoculation); 1,4E +06 VCD/ml in assay [3] (setting [4]); 1,8E +06 VCD/ml in assay [3] (setting [5]); 4,8E +06 VCD/ml in assay [3] (setting [7]); 5,6E +06 VCD/ml in assay [3] (setting [6]); 9,5E +06 VCD/ml in assay [3] (Day 7 after inoculation, selected in CD-Fusion + 10 µg/ml Puromycin (pJF1576)). In addition, the “Viable cell density profile” value in assay [3] (setting [8]) is on record as 1,2E +07 VCD/ml; in assay [3] (setting [9]), 1,2E +07 VCD/ml; in assay [3] (setting [10]) it was 1,5E +07 VCD/ml; in assay [3] (setting [11]), 1,0E +07 VCD/ml; in assay [3] (setting [12]) it was 7,4E +06 VCD/ml; in assay [3] (setting [13]), 9,7E +06 VCD/ml.
